Data: patent publication US9381260B2, “Hypoxia inducible factor-1 pathway inhibitors and uses as anticancer and imaging agents” (EMORY UNIVERSITY, priority 2011, dated 2016)
In brackets after ≈: the same amount, converted by molar mass.

Assays:
[1] = test system: HIF-1 transcriptional activity; assay: HIF-inducible luciferase reporter assay in LN229-V6R cells under hypoxia; type: cell-based, human
Protocol: (§1) Results are plotted as percent of luciferase activity found in extracts of untreated cells used as controls. (A) Luciferase activity in extracts of LN229-V6R cells, which contain a HIF-inducible luciferase reporter gene. The cells were grown under hypoxia to activate HIF. (B) Luciferase activity in extracts of LN229-Lux cells, which contain a constitutively expressed luciferase reporter gene. Results shown are from cells grown under normoxia; similar results were obtained under hypoxia.
(§2) The effects of the 12 heteroarylsulfonamides on HIF transcriptional activity under hypoxia were measured by determining the luciferase activity present in LN229-V6R cells, which contain a stably integrated hypoxia/HIF inducible luciferase reporter gene. As a control for the absence of inhibition on luciferase enzyme per se, we also tested 1 and five heteroarylsulfonamides in LN229-Lux cells that contain a constitutive luciferase reporter gene driven by a retroviral LTR promoter. An Hsp90 inhibitor, 17-DMAG, and 1 were used as positive controls. […] The heteroarylsulfonamides decreased HIF-1 activity in a dose-dependent fashion with IC50 values below (6a, 6b, 6d-6f, 6h, 6i, 6l) or close to 5 μM (6c, 6g, 6j, 6k) (FIG. 2).

[2] = test system: LN229-Lux cells (constitutive luciferase reporter gene); assay: Constitutive luciferase reporter control assay in LN229-Lux cells; type: cell-based, human; details: control for luciferase inhibition
Protocol: as §1, §2

HIF-1α = HIF-1α protein levels by Western blot in LN229-V6R cells under hypoxia; type: cell-based, human; details: 24 h; for effect on HIF-1α protein levels: 3-100 μM
Protocol: HIF-1 is a heterodimer of HIF-1α and HIF-1β subunits, which then associates with p300 or CBP cofactors to form an active transcriptional complex. […] To determine whether the heteroarylsulfonamides retain this property, we determined the levels of HIF-1α protein under hypoxia in LN229-V6R cells. […] We investigated if the levels of HIF-1α protein would correlate with transcriptional inhibition of the HRE reporter by the compounds. LN229-V6R cells were treated with the compounds at concentrations of 3, 6, 12, 25, 50, and 100 μM under hypoxia for 24 h, and then HIF-1α protein levels in the cell extracts were examined by Western blotting. […] 6g and 61 decreased HIF-1a levels in a dose-dependent fashion starting from 12 and 25 μM, respectively (FIG. 3). […] The reduction in HIF-1α levels afforded by all three compounds at 100 μM may reflect nonspecific cytotoxicity.

[3] = Aqueous solubility by laser nephelometry at pH 3.0, 5.0, 7.4; type: physicochemical; details: pH 5.0 and pH 3.0 versus pH 7.4
[4] = log P7.4 by shake flask or HPLC method (OECD guidelines); type: physicochemical; details: pH 7.4
Protocol: Experimental determinations of log P7.4, aqueous solubility, and metabolic stability of a selected number of the heteroarylsulfonamides were performed to further characterize the compounds (Table 2 log P7.4 was measured by either the shake flask method (6a, 6g) or the HPLC method (1, 6b-6f, 6h-6l) according to OECD guidelines. Most compounds followed the trends predicted by in silico calculations, and the measured values were smaller than the predicted values by 1.0-1.5. When a methoxy group or hydroxyl group is placed at the C-8 position of the chromene ring instead of a hydrogen, as in 6g, 6h, and 6l, the log P7.4 value decreased by more than 2 from the predicted values to result in 1.2-1.3. The presence of a 2-methylpropan-2-yl group in region 2 conferred high log P7.4 values, and heteroarylsulfonyl groups in region 1 also affected log P7.4 values, as shown for 6c, 6i, 6j, and 6k.

[5] = Aqueous solubility by HPLC-UV on filtered saturated suspensions; type: physicochemical; details: for aqueous solubility (n = 3) / solubility: HPLC-UV, saturated aqueous suspension, PTFE filter 0.2 μm; for solubility: water, thermodynamic from solid, read-out: aqueous solubility (n = 3); for aqueous solubility relative to 1: fold more soluble than compound 1
From the text: Aqueous solubilities of 1, 6a, 6d, and 6g were quantified by HPLC coupled with a UV detector on saturated aqueous suspensions after filtration with a polytetrafluoroethylene (PTFE) filter (pore size 0.2 μm). 6a and 6d were chosen due to their strong activity in the HRE-reporter assay, and 6g was picked to evaluate the influence of the methoxy group attached to the C-8 position of the chromene ring. Aqueous solubilities of 6a, 6d, and 6g are, respectively, 100, 20, and 9000 times better than that of 1, which are consistent with the log Sw predictions for 6a and 6d. The substitution of hydrogen with a methoxy group at the C-8 position of the chromene ring increased the aqueous solubility by 90 times (compare 6a and 6g).

[6] = Metabolic stability in homogenates of mouse liver; type: in vitro ADME; details: homogenates of mouse liver in PBS 1:2 (w/v), ex vivo; for half-life: mouse, mouse liver homogenate, read-out: half-life (hepatic metabolic stability) (converted)
Protocol: Metabolic stabilities of 1, 6a, 6d, 6g, and 6l were measured in mouse plasma and homogenates of mouse liver in PBS [1:2 (w/v)].

[7] = test system: LN229 human glioblastoma cells; assay: Clonogenicity assay LN229; type: cell-based; details: LN-229, 336 h, 14 days
From the text: (§3) To determine whether 6a, 6g, and 6l altered tumor cell growth in culture, we performed sulforhodamine B (SRB) assays in LN229-V6R glioma cells in 3 days, and to further examine the cell growth inhibitory activity of 6a, 6g, and 61 in an independent biological assay, we performed clonogenicity assays in LN229 human glioblastoma cells and HFF-1 immortalized human fibroblasts, over a period of 14 days.

[8] = test system: HFF-1 immortalized human fibroblasts; assay: Clonogenicity assay HFF-1; type: cell-based; details: HFF-1, 336 h, 14 days
From the text: as §3

CO[C@H]1/C=C\C=C(/C)C(=O)NC2=CC(=O)C(NCCN(C)C)=C(C[C@@H](C)C[C@H](OC)[C@H](O)[C@@H](C)/C=C(\C)[C@@H]1OC(N)=O)C2=O [17-DMAG, reference compound]
effect on luciferase activity in LN229-V6R cells [1]: inhibited | effect on luciferase activity in LN229-Lux cells [2]: inhibited

COc1ccc(S(=O)(=O)N(Cc2ccc3c(c2)C=CC(C)(C)O3)c2ccccc2)cc1OC [Compound 1, 3,4-Dimethoxy-N-[(2,2-dimethyl-2H-chromene-6-yl)methyl]-N-phenylbenzenesulfonamide, reference compound]
activity at 2.5 µM ([1]; Homo sapiens, 2.5 μM, LN229-V6R cells, read-out: remaining HIF-1 activity at 2.5 μM, % of control): 18% | effect on HIF-1α protein levels (HIF-1α): does not antagonize hypoxia-induced HIF-1α expression | effect of low pH on aqueous solubility [3]: pH did not affect aqueous solubility | log P7.4 [4]: 3.7 | effect on luciferase activity in LN229-Lux cells [2]: reduced luciferase activity only in LN229-V6R cells | aqueous solubility (n = 3) [5]: 0.009 µM (≈ 0.00419 µg/mL) | solubility [5]: 0.003 µg/mL (≈ 0.00644 µM) | half-life [6]: 11 h

CC(C)N(Cc1ccc2c(c1)C=CC(C)(C)O2)S(=O)(=O)c1ccccn1 [Compound 6a, N-[(2,2-Dimethyl-2H-chromen-6-yl)methyl]-N-(propan-2-yl)pyridine-2-sulfonamide]
IC50 ([7]; LN229, hypoxia): 134 µM | IC50 ([7]; LN229, normoxia): 82 µM | IC50 ([8]; HFF-1, hypoxia): 93 µM | IC50 ([8]; HFF-1, normoxia): 62 µM | inhibition of HIF-1 transcriptional activity (HRE-reporter) at 10 μM ([1]; 10 μM, LN229-V6R cells, 1 day): inhibited completely | IC50 ([1]; Homo sapiens, LN229-V6R cells): < 5 µM | effect on HIF-1α protein levels (HIF-1α): no effect on HIF-1α levels at all concentrations tested, except for a slight reduction at the highest concentration (100 μM) | effect of low pH on aqueous solubility [3]: 50-60 times | log P7.4 [4]: 2.0 | aqueous solubility (n = 3) [5]: 1 ± 0.1 µM (≈ 0.372 µg/mL) | aqueous solubility relative to 1 [5]: 100 times | solubility [5]: 0.3 µg/mL (≈ 0.805 µM) | half-life (hepatic metabolic stability) [6]: 20 h | half-life [6]: 13 to 20 h

CC1(C)C=Cc2cc(CN(C3CC3)S(=O)(=O)c3ccccn3)ccc2O1 [Compound 6b, N-Cyclopropyl-N-[(2,2-dimethyl-2H-chromen-6-yl)methyl]pyridine-2-sulfonamide]
IC50 ([1]; Homo sapiens, LN229-V6R cells): < 5 µM | log P7.4 [4]: 3.0

CC(C)CN(Cc1ccc2c(c1)C=CC(C)(C)O2)S(=O)(=O)c1ccccn1 [Compound 6c, N-[(2,2-Dimethyl-2H-chromen-6-yl)methyl]-N-(2-methylpropyl)pyridine-2-sulfonamide]
log P7.4 [4]: 4.1

CC1(C)C=Cc2cc(CN(CC3CC3)S(=O)(=O)c3ccccn3)ccc2O1 [Compound 6d, N-(Cyclopropylmethyl)-N-[(2,2-dimethyl-2H-chromen-6-yl)methyl]pyridine-2-sulfonamide]
log P7.4 [4]: 3.1 | aqueous solubility (n = 3) [5]: 0.2 ± 0.07 µM (≈ 0.0769 µg/mL) | aqueous solubility relative to 1 [5]: 20 times | solubility [5]: 0.1 µg/mL (≈ 0.26 µM) | half-life (hepatic metabolic stability) [6]: 13 h | half-life [6]: 13 to 20 h

CC1(C)C=Cc2cc(CN(C3CCC3)S(=O)(=O)c3ccccn3)ccc2O1 [Compound 6e, N-(Cyclobutyl)-N-[(2,2-dimethyl-2H-chromen-6-yl)methyl]pyridine-2-sulfonamide]
log P7.4 [4]: 3.0

CC1(C)C=Cc2cc(CN(C3CCCC3)S(=O)(=O)c3ccccn3)ccc2O1 [Compound 6f, N-(Cyclopentyl)-N-[(2,2-dimethyl-2H-chromen-6-yl)methyl]pyridine-2-sulfonamide]
log P7.4 [4]: 3.8

COc1cc(CN(C(C)C)S(=O)(=O)c2ccccn2)cc2c1OC(C)(C)C=C2 [Compound 6g]
IC50 ([7]; LN229, hypoxia): > 100 µM | IC50 ([7]; LN229, normoxia): 69 µM | IC50 ([8]; HFF-1, hypoxia): > 100 µM | IC50 ([8]; HFF-1, normoxia): 55 µM | concentration from which HIF-1α levels decreased dose-dependently (HIF-1α): 12 µM | aqueous solubility relative to 1 [5]: 9000 times | half-life (hepatic metabolic stability) [6]: 15 h | half-life [6]: 13 to 20 h

CC(C)CN(Cc1ccc2c(c1)C=CC(C)(C)O2)S(=O)(=O)c1ccncc1 [Compound 6i, N-[(2,2-Dimethyl-2H-chromen-6-yl)methyl]-N-(2-methylpropyl)pyridine-4-sulfonamide]
IC50 ([1]; Homo sapiens, LN229-V6R cells): < 5 µM | log P7.4 [4]: 3.6

CC(C)CN(Cc1ccc2c(c1)C=CC(C)(C)O2)S(=O)(=O)c1nccn1C [Compound 6j, N-[(2,2-Dimethyl-2H-chromen-6-yl)methyl]-N-(2-methylpropyl)-1-methyl-1H-imidazole-2-sulfonamide]
log P7.4 [4]: 3.1

CC(C)CN(Cc1ccc2c(c1)C=CC(C)(C)O2)S(=O)(=O)c1nccs1 [Compound 6k, N-[(2,2-Dimethyl-2H-chromen-6-yl)methyl]-N-(2-methylpropyl)-1,3-thiazole-2-sulfonamide]
log P7.4 [4]: 4.4
